Here are results for one compound from patent US7820678B2, “Sodium channel blockers” (Parion Sciences, Inc., priority 2003, dated 2010).

As a reminder, the melting point is the temperature, or range, at which the solid turns liquid. As for `CS(=O)(=O)N(c1ccc(CCCCNC(=N)NC(=O)c2nc(Cl)c(N)nc2N)cc1)S(C)(=O)=O` [Example 4, N-(3,5-Diamino-6-chloropyrazine-2-carbonyl)-N′-[4-(4-bis(methanesulfonyl)aminophenyl)butyl]guanidine], the melting point was 174 to 176 °C (dec.).
